Measurements as given in patent publication US11597920B2, “Compositions and methods for enhancing reverse transcriptase activity and/or reducing the inhibition of reverse transcriptase” (BIO-RAD LABORATORIES, INC., priority 2019, dated 2023).

How the values were obtained:
Assay type in all cases: biochemical
[1] = system: thermo-stable RT (e.g., MMLV or engineered MMLV); assay: RT-qPCR: RT tolerance to heparin (Cq delay of RT products); settings: for Heparin tolerance: FIG. 2
Protocol: (§1) An RT reaction buffer was formulated so that the RT reaction can be carried out after being mixed together with thermo-stable RT (e.g., MMLV or engineered MMLV) and RNA templates (e.g., Hela RNA). […] The RT reaction was completed in a T100 Thermo Cycler (Bio-Rad Laboratories Inc. Hercules, Calif.). The RT reaction protocol was as follows: 50° C. 20 min, 95° C. 1 min, and incubation at 4° C.
(§2) After RT reaction, the RT products were used for qPCR reaction using SsoAdvanced Universal SYBR Green Supermix (Bio-Rad Laboratories Inc. Hercules, Calif.). The RT product inputs in qPCR reaction ranged from 10% to 0.1% of qPCR reaction, depending on the expression abundance of target genes. Target gene primers (Table 3) at 250 nM were used. The following protocol of qPCR was used on CFC348 Thermo Cycler (Bio-Rad Laboratories Inc. Hercules, Calif.): 95° C. denaturation for 2 min, 40 cycles of 95° C. 5S denaturation, 60° C. 30S annealing/extension/read.

[2] = system: thermo-stable RT (e.g., MMLV or engineered MMLV); assay: RT-qPCR: RT tolerance to other inhibitors (ethanol, guanidine hydrochloride); settings: 7.5% Ethanol and 50 mM Guanidinum hydrochloride
Protocol: as §1, §2

[3] = system: thermo-stable RT (e.g., MMLV or engineered MMLV); assay: RT-qPCR: RT tolerance to formalin; settings: for qPCR results from the RT products compared with the RT products without formalin: Human GAPDH
Protocol: (§3) An RT reaction buffer was formulated so that the RT reaction can be carried out after being mixed together with thermo-stable RT (e.g., MMLV or engineered MMLV) and RNA templates (e.g., Hela RNA). In a 20 μl RT reaction mix there is 1 u of RT enzyme, 10 u of Rnasin (Rnase inhibitor), nucleotides each at 1.5 mM (e.g., dATP, dCTP, dGTP, dTTP), random hexamer, oligo dT, or gene-specific oligo nucleotides at appropriate concentration (0.5 to 1 uM), 4% glycerol, 0.01% detergent (e.g., Tween 20), with or without RT inhibitors (e.g., Heparin, Ethanol, Guanidine Hydrochloride, Formalin, Tannic acid, etc.) or additives that improve RT reaction efficiency or sensitivity (e.g., PVSA). The RT reaction was completed in a T100 Thermo Cycler (Bio-Rad Laboratories Inc. Hercules, Calif.). The RT reaction protocol was as follows: 50° C. 20 min, 95° C. 1 min, and incubation at 4° C.
as §2, with “annealing/extension/read. After qPCR reaction, Cq values from RT products with and without inhibitors were compared, and usually Cq values were delayed (bigger values) when inhibitors were present. The larger the Cq value relative to no inhibitor RT products, the more inhibition of RT reaction observed.” for “annealing/extension/read.”
(§4) Human GAPDH target gene was detected in the qPCR reaction.

[4] = system: thermo-stable RT (e.g., MMLV or engineered MMLV); assay: RT-qPCR: RT tolerance to tannic acid
Protocol: as §3
After RT reaction, the RT products were used for qPCR reaction using SsoAdvanced Universal SYBR Green Supermix (Bio-Rad Laboratories Inc. Hercules, Calif.). The RT product inputs in qPCR reaction ranged from 10% to 0.1% of qPCR reaction, depending on the expression abundance of target genes. Target gene primers (Table 3) at 250 nM were used. […] 30S annealing/extension/read. […]
as §4

## N.N.O=S(=O)(O)O [(NH4)2SO4]
[1]
  Heparin tolerance: also improves Heparin tolerance though not as effect as K-Glu
[2]
  tolerance to other inhibitors: compromises Ethanol and GC tolerance

## C=O [Formalin]
[3]; Formalin 0.125% in RT reaction
  qPCR results from the RT products compared with the RT products without formalin: significantly delayed
[3]; formalin in RT reaction, without His-HCl
  Cq delay: about 4

## Cl.N[C@@H](Cc1c[nH]cn1)C(=O)O.O [His-HCl, histidine hydrochloride monohydrate]
[3]; Formalin 0.125% plus 15 to 20 mM His-HCl
  qPCR results from the RT products compared with the RT products without formalin: did not show a lot delay
[3]; formalin with 15 to 20 mM His-HCl present
  Cq delay: less than 1

## N[C@@H](CCC(=O)[O-])C(=O)[O-].[K+].[K+] [K-Glu, Potassium Glutamate]
[1]
  Heparin tolerance: improves Heparin tolerance
[1]; Heparin 0.003 U/μl with 100 mM K-Glu present
  Cq delay: less than 1
[1]; Heparin 0.0034 u/μl plus 100 mM potassium Glutamate in RT reaction
  qPCR from the RT products compared with the RT products without heparin: did not show much delay
[2]
  tolerance to other inhibitors: without compromising tolerance

## O=C(OC[C@H]1O[C@@H](OC(=O)c2cc(O)c(O)c(OC(=O)c3cc(O)c(O)c(O)c3)c2)[C@H](OC(=O)c2cc(O)c(O)c(OC(=O)c3cc(O)c(O)c(O)c3)c2)[C@@H](OC(=O)c2cc(O)c(O)c(OC(=O)c3cc(O)c(O)c(O)c3)c2)[C@@H]1OC(=O)c1cc(O)c(O)c(OC(=O)c2cc(O)c(O)c(O)c2)c1)c1cc(O)c(O)c(OC(=O)c2cc(O)c(O)c(O)c2)c1 [Tannic acid]
[4]; Tannic acid 0.1 μg/μl in the RT reaction, no Poloxamer
  Cq delay: over 13
[4]; tannic acid 0.1 μg/μl, Human GAPDH
  qPCR results from the RT products compared with the RT products without tannic acid: greatly delayed

## N[C@@H](Cc1c[nH]cn1)C(=O)O [histidine]
[3]; reaction mixtures containing formalin
  efficiency of the amplification reaction as compared to a control lacking histidine: improved the efficiency

## Heparin
[1]; Heparin 0.003 U/μl in the RT reaction, no K-Glu
  Cq delay: over 7
[1]; Heparin 0.0034 u/μl in RT reaction, GAPDH and 18S
  qPCR from the RT products compared with the RT products without heparin: greatly delayed
